How the values were obtained:
Format in all cases: in vivo
[1] = test system: Abutilon theophrasti (ABUTH); assay: Herbicidal efficacy, post-emergence application (glasshouse); settings: Abutilon theophrasti, 312 h, evaluated visually after 13 days, 100=total damage, 0=no damage, read-out: percentage phytotoxicity to the plant, ABUTH
Experimental: (§1) Seeds of a variety of test species [Ipomoea hederacea (IPOHE); Zea mays (ZEAMX); Echinochloa crus-galli (ECHCG); Setaria faberi (SETFA); Abutilon theophrasti (ABUTH); Amaranthus retroflexus (AMARE)] were sown in standard sterilised soil in pots. After cultivation for one day (pre-emergence) or after 8 days cultivation (post-emergence) under controlled conditions in a glasshouse (at 24/16° C., day/night; 14 hours light; 65% humidity), the plants were sprayed with an aqueous spray solution derived from the formulation of the technical active ingredient in acetone/water (50:50) solution containing 0.5% Tween 20 (polyoxyethelyene sorbitan monolaurate, CAS RN 9005-64-5), subsequently diluted in water, and sprayed to give the stated application rate.
(§2) The test plants were then grown under controlled conditions in a glasshouse (at 24/16° C., day/night; 14 hours light; 65% humidity) and watered twice daily.
(§3) After 13 days for pre and post-emergence, the test was evaluated visually for percentage phytotoxicity to the plant (where 100=total damage to plant; 0=no damage to plant).

[2] = test system: Amaranthus retroflexus (AMARE); assay: as above; settings: Amaranthus retroflexus, 312 h, evaluated visually after 13 days, 100=total damage, 0=no damage, read-out: percentage phytotoxicity to the plant, AMARE
Experimental: as §1, §2, §3

[3] = test system: Echinochloa crus-galli (ECHCG); assay: as above; settings: Echinochloa crus-galli, 312 h, evaluated visually after 13 days, 100=total damage, 0=no damage, read-out: percentage phytotoxicity to the plant, ECHCG
Experimental: as §1, §2, §3

[4] = test system: Ipomoea hederacea (IPOHE); assay: as above; settings: Ipomoea hederacea, 312 h, evaluated visually after 13 days, 100=total damage, 0=no damage, read-out: percentage phytotoxicity to the plant, IPOHE
Experimental: as §1, §2, §3

Setaria faberi (SETFA) [5] = assay: as above; settings: Setaria faberi, 312 h, evaluated visually after 13 days, 100=total damage, 0=no damage, read-out: percentage phytotoxicity to the plant, SETFA
Experimental: as §1, §2, §3

Zea mays (ZEAMX) [6] = assay: as above; settings: Zea mays, 312 h, evaluated visually after 13 days, 100=total damage, 0=no damage, read-out: percentage phytotoxicity to the plant, ZEAMX
Experimental: as §1, §2, §3

[7] = test system: Abutilon theophrasti (ABUTH); assay: Herbicidal efficacy, pre-emergence application (glasshouse); settings: Abutilon theophrasti, 312 h, evaluated visually after 13 days, 100=total damage, 0=no damage, read-out: percentage phytotoxicity to the plant, ABUTH
Experimental: as §1, §2, §3

[8] = test system: Amaranthus retroflexus (AMARE); assay: as above; settings: Amaranthus retroflexus, 312 h, evaluated visually after 13 days, 100=total damage, 0=no damage, read-out: percentage phytotoxicity to the plant, AMARE
Experimental: as §1, §2, §3

[9] = test system: Echinochloa crus-galli (ECHCG); assay: as above; settings: Echinochloa crus-galli, 312 h, evaluated visually after 13 days, 100=total damage, 0=no damage, read-out: percentage phytotoxicity to the plant, ECHCG
Experimental: as §1, §2, §3

[10] = test system: Ipomoea hederacea (IPOHE); assay: as above; settings: Ipomoea hederacea, 312 h, evaluated visually after 13 days, 100=total damage, 0=no damage, read-out: percentage phytotoxicity to the plant, IPOHE
Experimental: as §1, §2, §3

Setaria faberi (SETFA) [11] = assay: as above; settings: Setaria faberi, 312 h, evaluated visually after 13 days, 100=total damage, 0=no damage, read-out: percentage phytotoxicity to the plant, SETFA
Experimental: as §1, §2, §3

Zea mays (ZEAMX) [12] = assay: as above; settings: Zea mays, 312 h, evaluated visually after 13 days, 100=total damage, 0=no damage, read-out: percentage phytotoxicity to the plant, ZEAMX
Experimental: as §1, §2, §3

| SMILES | pest or weed control at 250 g/ha [1] | pest or weed control at 250 g/ha [2] | pest or weed control at 250 g/ha [3] | pest or weed control at 250 g/ha [4] | pest or weed control at 250 g/ha (Setaria faberi (SETFA) [5]) | plant injury at 250 g/ha (Zea mays (ZEAMX) [6]) | pest or weed control at 250 g/ha [7] | pest or weed control at 250 g/ha [8] | pest or weed control at 250 g/ha [9] | pest or weed control at 250 g/ha [10] | pest or weed control at 250 g/ha (Setaria faberi (SETFA) [11]) | plant injury at 250 g/ha (Zea mays (ZEAMX) [12]) |
| --- | --- | --- | --- | --- | --- | --- | --- | --- | --- | --- | --- | --- |
| CN1C[C@H](c2cc(C(F)(F)F)n(C)n2)[C@@H](C(=O)Nc2cccc(F)c2F)C1=O [Compound 2.1, (3S,4R)-N-(2,3-difluorophenyl)-1-methyl-4-[1-methyl-5-(trifluoromethyl)pyrazol-3-yl]-2-oxo-pyrrolidine-3-carboxamide] | 0% | 20% | 90% | 0% | 90% | 80% | 10% | 70% | 100% | 30% | 90% | 90% |
| CN1C[C@H](c2cc(C(F)(F)F)n(C)n2)[C@@H](C(=O)Nc2ccccc2F)C1=O [Compound 2.2, (3S,4R)-N-(2-fluorophenyl)-1-methyl-4-[1-methyl-5-(trifluoromethyl)pyrazol-3-yl]-2-oxo-pyrrolidine-3-carboxamide] | 0% | 0% | 90% | 0% | 90% | 50% | 0% | 20% | 90% | 0% | 90% | 20% |
| CN1C[C@H](c2cc(C(F)(F)F)n(C)n2)[C@@H](C(=O)Nc2ccc(F)cc2F)C1=O [Compound 2.3, (3S,4R)-N-(2,4-difluorophenyl)-1-methyl-4-[1-methyl-5-(trifluoromethyl)pyrazol-3-yl]-2-oxo-pyrrolidine-3-carboxamide] | 60% | 10% | 70% | 10% | 70% | 60% | 70% | 50% | 90% | 10% | 90% | 60% |
| CN1C[C@H](c2cc(C(F)(F)F)n(C)n2)[C@@H](C(=O)Nc2cccc(F)c2OC(F)(F)F)C1=O [Compound 2.4, (3S,4R)-N-[3-fluoro-2-(trifluoromethoxy)phenyl]-1-methyl-4-[1-methyl-5-(trifluoromethyl)pyrazol-3-yl]-2-oxo-pyrrolidine-3-carboxamide] | 0% | 0% | 70% | 0% | 70% | 0% | 0% | 0% | 90% | 50% | 90% | 30% |
| CN1C[C@H](c2cc(C(F)(F)F)n(C)n2)[C@@H](C(=O)Nc2cccc(F)c2C(F)(F)F)C1=O [Compound 2.5, (3S,4R)-N-[3-fluoro-2-(trifluoromethyl)phenyl]-1-methyl-4-[1-methyl-5-(trifluoromethyl)pyrazol-3-yl]-2-oxo-pyrrolidine-3-carboxamide] | 0% | 30% | 80% | 0% | 80% | 10% | 0% | 0% | 90% | 10% | 90% | 20% |
